Data as given in patent US20070225279A1, “Therapeutic combinations for the treatment of depression” (Wyeth, priority 2006, published 2007).

Legend:
Male Swiss Webster mice [1] = assay: Tail suspension test; assay type: in vivo; conditions: for decrease in immobility time: cotreated 30 minutes prior to the test
From the text: Compound 1, [drawing 11] was used to exemplify the effectiveness of compounds of the present invention in the tail suspension test. While not a direct model of depression, the tail suspension test is an assay that can evaluate antidepressant-like effects of drugs. […] Specifically, they decrease the amount of time the mice spend immobile after being hung upside down by their tails during the test. It is impossible to determine if a mouse is indeed depressed. However, the fact that clinically effective antidepressants reduce immobility lends predictive validity to the model. Animals
Male Swiss Webster mice (Charles River) weighing 25-35 g were used throughout this study. They were housed in groups of five per cage in an AALAC-accredited facility that was maintained on a 12-h light dark cycle (lights on at 0600 h) and had free access to food and water. Experimental groups consisted of 12 mice, randomly assigned to treatment groups. All experiments were performed between 9:00 AM and noon in accordance to the Guide for the Care and Use of Laboratory Animals as adopted and promulgated by the National Institutes of Health (Pub. 85-23, 1985).
Solutions of Compound 1 and paroxetine were freshly prepared; each dissolved in distilled water. All drugs were injected i.p. at a volume of 10 ml/kg body weight. Combination treatments were cotreated, 30 minutes prior to the test.
The procedure followed in this study was a variant of the one originally described by Steru et al. (1985). 30 minutes following treatment, the mice were suspended upside down by the tail using adhesive laboratory tape (VWR International), to a flat metal bar connected to a strain gauge within a tail suspension chamber (Med Associates). The time spent immobile during a 6-minute test session was automatically recorded. 8 mice were simultaneously tested within separate chambers. Data collected were expressed as a mean of immobility time and statistical analysis was performed using a one-way ANOVA with least significant difference (LSD) post-hoc test.

Male Swiss Webster mice [2] = conditions: general statement on clinically effective drugs; cited from earlier work

With `c1cc2c3c(c1)[C@H]1CCC[C@H]1N3CCNC2` [Compound 1] the “decrease in immobility time” value (Male Swiss Webster mice [1]; 1 mg/kg Compound 1 in combination with 30 mg/kg paroxetine, i.p.) was 24%, the “decrease in immobility time” value (Male Swiss Webster mice [1]; 3 mg/kg Compound 1 in combination with 30 mg/kg paroxetine, i.p.) was 35% and the “antidepressant-like effect (immobility time) in tail suspension test” value (Male Swiss Webster mice [1]; Compound 1 alone, 1 or 3 mg/kg i.p., 30 minutes prior to the test, 6-minute session) was “Neither dose of Compound 1 (1 or 3 mg/kg) produced an antidepressant-like effect alone”.
For `CNCCC(Oc1ccc(C(F)(F)F)cc1)c1ccccc1` (centres unmarked) [fluoxetine, N-methyl-3-(p-trifluoromethylphenoxy)-3-phenylpropylamine], the “effectiveness in tail suspension assay (decrease of time spent immobile)” value (Male Swiss Webster mice [2]) is given as “effective in this assay”.
`Fc1ccc([C@@H]2CCNC[C@H]2COc2ccc3c(c2)OCO3)cc1` (relative stereo) [paroxetine, trans-(−)-3-[(1,3-benzodioxol-5-yloxy)methyl]-4-(4-fluorophenyl)piperidine, reference compound] showed a decrease in immobility (Male Swiss Webster mice [1]; 30 mg/kg paroxetine alone, i.p., 30 minutes prior to the test, ns) of 18%.
